Measured values taken from publication PMC10820070, “Hydroxylated Tetramethoxyflavone Affects Intestinal Cell Permeability and Inhibits Cytochrome P450 Enzymes” (Molecules, 2024).
“And” between values parts separate entries of the source, which are not always exact repeats. Equal entries are not always repeated. Marks after values point to notes of the source that are not given here.

What was measured:
CYP2D6 = molecular target: T1, CYP2D6 (Homo sapiens, UniProt P10635); assay: CYP inhibition assay (P450 Baculosomes/Vivid substrate, fluorescence), 10-dose IC50; format: biochemical; conditions: mean ± S.D.; ND: Not Detected
T1 construct: purchased Invitrogen Corp. (Madison, WI, USA); host or cells: insect cells (baculovirus)

CYP1A2 = molecular target: T2, CYP1A2 (Homo sapiens, UniProt P05177); assay: as above
T2 sequence (P05177 2-516 limits assumed): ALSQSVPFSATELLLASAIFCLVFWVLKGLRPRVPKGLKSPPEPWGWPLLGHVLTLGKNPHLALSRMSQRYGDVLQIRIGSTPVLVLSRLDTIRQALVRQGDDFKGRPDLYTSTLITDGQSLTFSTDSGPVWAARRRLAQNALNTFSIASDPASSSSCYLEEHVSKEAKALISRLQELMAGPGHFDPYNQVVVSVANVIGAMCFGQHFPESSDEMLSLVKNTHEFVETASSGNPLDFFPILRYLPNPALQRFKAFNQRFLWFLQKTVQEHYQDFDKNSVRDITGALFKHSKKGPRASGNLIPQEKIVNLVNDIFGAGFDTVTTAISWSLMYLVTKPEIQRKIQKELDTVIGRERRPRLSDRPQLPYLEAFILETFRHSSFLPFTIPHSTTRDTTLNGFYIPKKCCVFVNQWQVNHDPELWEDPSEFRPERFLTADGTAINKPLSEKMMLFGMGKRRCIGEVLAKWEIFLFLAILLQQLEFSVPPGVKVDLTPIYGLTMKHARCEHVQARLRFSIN

CYP3A4 = CYP3A4 (Homo sapiens, UniProt P08684); assay: as above
CYP2C19 = molecular target: T3, CYP2C19 (Homo sapiens, UniProt P33261); assay: as above; format: biochemical; conditions: mean ± S.D.; ND: Not Detected
T3 construct: purchased Invitrogen Corp. (Madison, WI, USA); host or cells: insect cells (baculovirus)

CYP2C9 = CYP2C9 (Homo sapiens, UniProt P11712); assay: as above
Caco-2 cell monolayer = assay: Transport of TMFs across Caco-2 cell monolayer, apical to basolateral; format: in vitro ADME, human; conditions: 300 μg/mL TMF loaded on apical side, mean ± S.D
Experimental: (§1) Caco-2 cells were cultured in Dulbecco’s modified Eagle’s medium (DMEM; GIBCO, Carlsbad, CA, USA) supplemented with 10% fetal bovine serum (GIBCO), 1% nonessential amino acid solution, and antibiotics (100 U/mL penicillin and 100 µg/mL streptomycin from GIBCO) with a minor modification according to Lu. Cells were grown in an incubator with 5% CO2 and 95% humidity at 37 °C, with medium replaced every 2–3 days. The tests were carried out using cells from passages 25–35. Transwell inserts with a polycarbonate membrane (diameter 1.2 cm, pore size 0.4 μm; Corning Costar Co., Corning, NY, USA) were used in 12-well plates. Caco-2 cells were planted at 5 × 10^5 cells/cm^2 on the membrane inserts, and 0.5 and 1.5 mL of culture media were placed on the apical and basolateral sides, respectively. The medium was changed three times a week, and the Caco-2 cells used in the studies had been cultured in the Transwells for approximately 21 days. The integrity of the cell layer was assessed using Millicell ERS equipment by measuring transepithelial electrical resistance (TEER) values (Millipore Co., Bedford, MA, USA). Monolayers with TEER values greater than 400 Ωcm^2 were used for transport and absorption studies.
(§2) Transport experiments were conducted using modified methodologies from the literature. Before adding the test solution, the apical and basolateral sides of the Coco-2 cell monolayer grown in Transwell inserts were washed three times with Hank’s balanced salt solution (GIBCO). The apical-to-basolateral permeability was measured by adding 0.5 mL of the test solution containing 300 μg/mL TMFs and 1.5 mL of HBSS to the apical and basolateral sides, respectively, and incubating at 37 °C for 0.5, 1, 2, and 4 h. The concentration of TMF utilized was determined using the Caco-2 cell viability test findings. TMF was dissolved and diluted with HBSS before the experiment began. The apical and basolateral solutions were collected after incubation for 0.5, 1, 2, and 4 h, and the concentration of TMF was determined using LC-MS. The apparent permeability coefficient (Papp in cm/s) was calculated over a four-hour duration using Equation (1):Papp = (V/AC0) × (dC/dt)(1) where V is the volume of solution on the basolateral side (1.5 mL); A is the membrane surface area (1.12 cm^2); C0 is the initial concentration on the apical side; and dC/dt is the change in concentration in the basolateral side over time.
(§3) The transport efficiency (%) was calculated using Equation (2):Transport efficiency (%) = (Cbs)/(Cas) × 100 (%)(2) where Cbs is the concentration of TMF transported in the basolateral side; and Cas is the initial concentration of TMF added to the apical side.

[1] = as above; format: in vitro ADME, human; conditions: human, Caco-2, calculated over four hours, read-out: apparent permeability coefficient (Papp)
Experimental: as §1, §2, §3

[2] = test system: cytochrome P450s (CYP) 3A4; design: method as in PMID 22056445; conditions: in vitro; read-out: IC50 against CYP3A4; cited from earlier work
[3] = test system: cytochrome P450s (CYP) 1A2; design: method as in PMID 22056445; conditions: in vitro; read-out: IC50 against CYP1A2; cited from earlier work
[4] = test system: CYP1A2, CYP2C9, CYP2C19 (range over the three); assay: CYP inhibition assay, summary over the enzyme panel; format: biochemical; conditions: human, probe Vivid substrates; range over CYP1A2, 2C9 and 2C19; dose-dependent

Chain of CYP3A4 (P08684 2-503 limits assumed): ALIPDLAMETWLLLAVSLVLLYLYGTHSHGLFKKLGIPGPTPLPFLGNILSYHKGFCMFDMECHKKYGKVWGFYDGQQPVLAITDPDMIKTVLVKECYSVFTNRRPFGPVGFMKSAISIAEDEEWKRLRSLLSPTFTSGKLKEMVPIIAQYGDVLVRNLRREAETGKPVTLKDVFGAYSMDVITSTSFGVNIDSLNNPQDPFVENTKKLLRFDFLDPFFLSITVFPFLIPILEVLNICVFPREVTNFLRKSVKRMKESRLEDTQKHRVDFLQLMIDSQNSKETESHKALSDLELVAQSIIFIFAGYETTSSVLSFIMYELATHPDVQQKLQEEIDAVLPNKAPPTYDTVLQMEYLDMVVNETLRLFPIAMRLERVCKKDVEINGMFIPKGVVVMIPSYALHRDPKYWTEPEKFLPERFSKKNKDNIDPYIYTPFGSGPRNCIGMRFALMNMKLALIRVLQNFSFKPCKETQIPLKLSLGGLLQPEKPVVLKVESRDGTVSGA
Chain of CYP2C9 (P11712 whole entry): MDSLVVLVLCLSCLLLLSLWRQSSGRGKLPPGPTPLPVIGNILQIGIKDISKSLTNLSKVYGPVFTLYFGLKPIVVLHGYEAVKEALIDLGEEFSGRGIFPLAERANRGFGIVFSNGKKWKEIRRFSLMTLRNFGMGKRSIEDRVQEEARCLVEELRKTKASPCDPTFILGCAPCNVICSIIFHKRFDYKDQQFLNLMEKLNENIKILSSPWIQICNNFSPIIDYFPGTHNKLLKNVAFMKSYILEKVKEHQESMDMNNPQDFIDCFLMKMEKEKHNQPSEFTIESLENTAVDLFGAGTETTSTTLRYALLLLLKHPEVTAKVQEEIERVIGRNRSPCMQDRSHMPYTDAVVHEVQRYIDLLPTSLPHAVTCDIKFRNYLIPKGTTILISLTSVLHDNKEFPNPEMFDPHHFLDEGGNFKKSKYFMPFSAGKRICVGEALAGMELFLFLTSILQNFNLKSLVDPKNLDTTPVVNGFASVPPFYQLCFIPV
T3 sequence (P33261 whole entry): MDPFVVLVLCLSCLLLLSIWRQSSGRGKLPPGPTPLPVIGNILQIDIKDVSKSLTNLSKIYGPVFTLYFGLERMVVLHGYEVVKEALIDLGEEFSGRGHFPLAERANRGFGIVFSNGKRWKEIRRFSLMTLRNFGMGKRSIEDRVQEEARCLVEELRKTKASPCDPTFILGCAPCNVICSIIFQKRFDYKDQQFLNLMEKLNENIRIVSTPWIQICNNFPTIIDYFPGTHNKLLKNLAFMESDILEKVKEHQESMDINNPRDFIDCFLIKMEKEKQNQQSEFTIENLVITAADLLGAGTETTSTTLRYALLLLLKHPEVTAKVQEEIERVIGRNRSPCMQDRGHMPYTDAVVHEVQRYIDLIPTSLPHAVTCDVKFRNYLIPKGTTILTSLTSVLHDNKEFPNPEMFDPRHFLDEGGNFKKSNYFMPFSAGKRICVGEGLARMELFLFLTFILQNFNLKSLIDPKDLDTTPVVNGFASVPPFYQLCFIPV
T1 sequence (P10635 whole entry): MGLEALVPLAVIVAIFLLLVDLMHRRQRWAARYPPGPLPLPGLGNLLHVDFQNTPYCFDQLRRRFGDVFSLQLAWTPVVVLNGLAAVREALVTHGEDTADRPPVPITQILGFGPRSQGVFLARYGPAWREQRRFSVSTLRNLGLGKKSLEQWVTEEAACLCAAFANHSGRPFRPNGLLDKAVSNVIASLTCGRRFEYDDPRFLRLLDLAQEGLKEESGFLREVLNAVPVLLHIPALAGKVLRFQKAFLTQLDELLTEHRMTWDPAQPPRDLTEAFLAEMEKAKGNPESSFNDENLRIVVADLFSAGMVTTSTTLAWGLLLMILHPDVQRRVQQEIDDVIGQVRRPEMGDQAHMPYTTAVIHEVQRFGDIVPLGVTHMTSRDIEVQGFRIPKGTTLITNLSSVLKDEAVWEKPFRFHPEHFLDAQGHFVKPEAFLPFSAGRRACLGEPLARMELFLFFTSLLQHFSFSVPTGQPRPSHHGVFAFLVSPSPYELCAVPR

Compound	IC50 (CYP2D6)	IC50 (CYP1A2)	IC50 (CYP3A4)	IC50 (CYP2C19)	IC50 (CYP2C9)	Transport Efficiency (%) (Caco-2 cell monolayer; 1 h)	Transport Efficiency (%) (Caco-2 cell monolayer; 2 h)	Transport Efficiency (%) (Caco-2 cell monolayer; 4 h)	Papp at 4 h, 300 μg/mL [1]	IC50 [2]	IC50 [3]	IC50 at 25 min [4]
COc1ccc2oc(-c3cc(OC)c(OC)cc3OC)c(O)c(=O)c2c1 [3H6-TMF, 3-hydroxy-2′,4′,5′,6-tetramethoxyflavone]	95.5 ± 3.21 µM	20.6 ± 0.98 µM	0.44 ± 0.12 µM	10.2 ± 2.47 µM	8.03 ± 3.75 µM	25.42 ± 1.92 ^c %	33.27 ± 2.59 ^b %	39.43 ± 2.50% and 39% and 39.43 ± 3.50 ^a %	17.4 ×10⁻⁶ cm/s	–	–	–
COc1ccc2c(=O)c(O)c(-c3cc(OC)c(OC)cc3OC)oc2c1 [3H7-TMF, 3-hydroxy-2′,4′,5′,7-tetramethoxyflavone]	2.28 ± 0.46 µM	15.5 ± 1.95 µM	0.15 ± 0.07 µM	14.8 ± 3.15 µM	18.3 ± 8.93 µM	37.82 ± 0.07 ^c %	41.96 ± 1.14 ^b %	46% and 46.29 ± 2.16 ^a %	19.5 ×10⁻⁶ cm/s	–	–	–
COc1cc(-c2cc(=O)c3c(O)c(OC)c(OC)c(OC)c3o2)ccc1O [8-methoxycirsilineol, 4′,5-dihydroxy-3′,6,7,8-tetramethoxy flavone]	–	–	–	–	–	–	–	–	–	1.71 µM	2.41 µM	–
COc1cc(OC)c2c(=O)cc(-c3ccc(OC)c(OC)c3)oc2c1 [57-TMF, 3′,4′,5,7-tetramethoxyflavone]	–	35.6 ± 12.3 µM	3.56 ± 1.23 µM	–	62.5 ± 2.12 µM	22.48 ± 3.90 ^c %	33.03 ± 0.46 ^b %	34.00 ± 0.01% and 34.00 ± 1.81 ^ab %	14.3 ×10⁻⁶ cm/s	–	–	–
COc1ccc(-c2cc(=O)c3ccc(OC)c(OC)c3o2)cc1OC [78-TMF, 3′,4′,7,8-tetramethoxyflavone]	–	0.79 ± 0.12 µM	108 ± 6.31 µM	1.85 ± 0.14 µM	1.49 ± 0.16 µM	30.49 ± 0.05 ^c** %	33.98 ± 0.75 ^b %	37.58 ± 0.11% and 37.58 ± 2.11 ^a %	8.83 ×10⁻⁶ cm/s	–	–	0.79 to 1.85 µM
